# According to ChEMBL document CHEMBL5465560, “Selectivity Literature for EUbOPEN Chemogenomic Library” (2024):
# Assays:
# [1] = biological target: T1, Tyrosine-protein kinase ITK/TSK (Homo sapiens) (UniProt Q08881); test: Selectivity interaction (KinomeScan (DiscoverX)) EUB0000092b ITK; conditions: at 10 µM
# T1 sequence (whole entry): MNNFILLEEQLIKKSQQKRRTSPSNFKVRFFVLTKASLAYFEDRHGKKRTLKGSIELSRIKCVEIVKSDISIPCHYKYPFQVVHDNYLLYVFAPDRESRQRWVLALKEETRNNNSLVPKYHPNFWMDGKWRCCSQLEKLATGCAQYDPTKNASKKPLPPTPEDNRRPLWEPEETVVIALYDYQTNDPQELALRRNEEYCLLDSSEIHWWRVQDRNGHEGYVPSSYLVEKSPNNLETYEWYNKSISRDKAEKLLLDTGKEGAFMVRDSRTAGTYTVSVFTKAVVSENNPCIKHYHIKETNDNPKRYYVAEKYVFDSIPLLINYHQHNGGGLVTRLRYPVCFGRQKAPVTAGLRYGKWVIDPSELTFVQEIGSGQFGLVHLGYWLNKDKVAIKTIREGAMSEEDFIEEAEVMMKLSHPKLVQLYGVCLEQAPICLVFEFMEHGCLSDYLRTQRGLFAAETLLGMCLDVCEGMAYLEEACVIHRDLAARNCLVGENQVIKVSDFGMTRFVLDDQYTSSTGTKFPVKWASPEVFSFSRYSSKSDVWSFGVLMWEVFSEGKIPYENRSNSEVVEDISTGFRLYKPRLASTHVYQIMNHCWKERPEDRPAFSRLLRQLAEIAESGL
# [2] = biological target: Serine/threonine-protein kinase PAK 6 (Homo sapiens) (UniProt Q9NQU5); test: Selectivity interaction (KinomeScan (DiscoverX)) EUB0000092b PAK6; conditions: at 10 µM
# Sequence of Serine/threonine-protein kinase PAK 6 (Homo sapiens) (Q9NQU5 whole entry, looked up): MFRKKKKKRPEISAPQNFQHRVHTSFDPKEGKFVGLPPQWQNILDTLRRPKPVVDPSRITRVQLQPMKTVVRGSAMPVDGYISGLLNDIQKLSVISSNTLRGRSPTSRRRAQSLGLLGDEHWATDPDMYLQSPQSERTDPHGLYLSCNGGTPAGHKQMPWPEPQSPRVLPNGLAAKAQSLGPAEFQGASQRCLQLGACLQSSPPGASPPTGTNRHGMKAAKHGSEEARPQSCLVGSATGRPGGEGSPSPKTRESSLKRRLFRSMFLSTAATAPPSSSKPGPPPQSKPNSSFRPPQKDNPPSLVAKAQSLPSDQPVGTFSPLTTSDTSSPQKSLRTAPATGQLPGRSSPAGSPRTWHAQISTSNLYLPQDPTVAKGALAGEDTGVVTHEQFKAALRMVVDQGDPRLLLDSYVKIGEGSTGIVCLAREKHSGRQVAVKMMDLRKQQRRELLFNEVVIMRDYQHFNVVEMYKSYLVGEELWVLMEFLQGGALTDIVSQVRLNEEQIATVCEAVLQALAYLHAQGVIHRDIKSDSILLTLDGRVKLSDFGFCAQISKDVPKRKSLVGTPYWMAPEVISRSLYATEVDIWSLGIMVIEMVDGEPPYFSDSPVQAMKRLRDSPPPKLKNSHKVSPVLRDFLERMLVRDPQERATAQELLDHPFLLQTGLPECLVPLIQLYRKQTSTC
# [3] = biological target: Ribosomal protein S6 kinase alpha-5 (Homo sapiens) (UniProt O75582); test: Selectivity interaction (Kinase panel (DSF assay)) EUB0001559a RPS6KA5
# Sequence of Ribosomal protein S6 kinase alpha-5 (Homo sapiens) (O75582 whole entry, looked up): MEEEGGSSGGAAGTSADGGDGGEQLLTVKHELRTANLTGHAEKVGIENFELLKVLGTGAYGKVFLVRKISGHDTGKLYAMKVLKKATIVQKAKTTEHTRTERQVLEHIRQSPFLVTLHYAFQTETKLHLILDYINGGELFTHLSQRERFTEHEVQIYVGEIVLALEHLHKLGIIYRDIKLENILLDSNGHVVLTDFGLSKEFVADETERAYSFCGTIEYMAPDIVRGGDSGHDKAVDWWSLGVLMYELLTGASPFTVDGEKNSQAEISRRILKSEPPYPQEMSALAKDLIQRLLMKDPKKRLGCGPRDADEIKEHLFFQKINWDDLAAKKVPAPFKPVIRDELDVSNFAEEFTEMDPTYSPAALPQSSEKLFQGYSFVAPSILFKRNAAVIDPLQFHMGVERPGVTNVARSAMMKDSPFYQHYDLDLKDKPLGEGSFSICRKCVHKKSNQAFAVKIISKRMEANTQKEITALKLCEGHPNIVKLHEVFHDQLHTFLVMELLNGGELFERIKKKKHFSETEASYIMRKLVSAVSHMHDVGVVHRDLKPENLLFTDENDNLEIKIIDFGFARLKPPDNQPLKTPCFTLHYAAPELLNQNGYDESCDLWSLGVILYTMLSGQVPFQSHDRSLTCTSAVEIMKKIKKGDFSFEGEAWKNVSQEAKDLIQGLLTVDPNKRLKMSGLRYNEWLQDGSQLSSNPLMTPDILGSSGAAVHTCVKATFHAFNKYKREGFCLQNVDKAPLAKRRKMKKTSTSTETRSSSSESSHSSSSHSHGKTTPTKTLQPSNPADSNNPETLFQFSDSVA
# [4] = biological target: T2, Mitogen-activated protein kinase kinase kinase 15 (Homo sapiens) (UniProt Q6ZN16); conditions: at 10 µM
# T2 sequence (whole entry): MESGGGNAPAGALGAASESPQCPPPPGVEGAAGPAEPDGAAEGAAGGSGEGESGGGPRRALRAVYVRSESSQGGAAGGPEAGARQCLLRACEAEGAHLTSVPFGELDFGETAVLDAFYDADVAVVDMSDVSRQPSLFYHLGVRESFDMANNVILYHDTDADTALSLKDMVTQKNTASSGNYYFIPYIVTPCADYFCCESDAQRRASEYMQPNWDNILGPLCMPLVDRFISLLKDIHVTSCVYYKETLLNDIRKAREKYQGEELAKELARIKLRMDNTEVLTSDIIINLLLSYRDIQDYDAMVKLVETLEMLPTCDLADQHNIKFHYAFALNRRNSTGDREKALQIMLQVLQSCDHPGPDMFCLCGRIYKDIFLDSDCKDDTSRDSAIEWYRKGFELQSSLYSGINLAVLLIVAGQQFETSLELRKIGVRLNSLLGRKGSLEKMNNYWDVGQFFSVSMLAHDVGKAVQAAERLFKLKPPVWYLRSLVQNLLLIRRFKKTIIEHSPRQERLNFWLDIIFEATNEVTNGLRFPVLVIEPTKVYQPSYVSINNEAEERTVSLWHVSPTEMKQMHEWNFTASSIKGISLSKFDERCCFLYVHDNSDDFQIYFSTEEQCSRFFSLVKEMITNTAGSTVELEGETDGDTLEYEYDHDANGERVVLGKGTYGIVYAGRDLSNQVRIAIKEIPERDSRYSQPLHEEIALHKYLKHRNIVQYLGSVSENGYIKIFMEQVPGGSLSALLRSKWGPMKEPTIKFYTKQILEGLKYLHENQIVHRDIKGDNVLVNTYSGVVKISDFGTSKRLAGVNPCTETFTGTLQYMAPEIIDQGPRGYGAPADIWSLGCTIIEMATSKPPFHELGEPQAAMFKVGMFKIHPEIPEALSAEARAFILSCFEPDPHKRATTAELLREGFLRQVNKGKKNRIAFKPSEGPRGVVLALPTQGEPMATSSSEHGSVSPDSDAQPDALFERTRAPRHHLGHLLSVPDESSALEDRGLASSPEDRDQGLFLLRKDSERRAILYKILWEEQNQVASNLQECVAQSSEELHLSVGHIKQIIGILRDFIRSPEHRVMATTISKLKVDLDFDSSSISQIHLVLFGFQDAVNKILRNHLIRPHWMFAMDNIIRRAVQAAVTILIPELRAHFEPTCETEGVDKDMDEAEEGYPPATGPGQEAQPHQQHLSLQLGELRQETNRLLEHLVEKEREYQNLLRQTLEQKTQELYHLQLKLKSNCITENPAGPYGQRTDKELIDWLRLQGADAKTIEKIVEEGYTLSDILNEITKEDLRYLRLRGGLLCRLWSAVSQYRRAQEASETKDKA
# [5] = biological target: Dual specificity mitogen-activated protein kinase kinase 2 (Homo sapiens) (UniProt P36507); test: Selectivity interaction (ActivX KiNativ screen (kinase selectivity in THP-1 cell lysates)) EUB0000639a MAP2K2; assay type: subcellular; conditions: lysate, at 1 µM
# Sequence of Dual specificity mitogen-activated protein kinase kinase 2 (Homo sapiens) (P36507 whole entry): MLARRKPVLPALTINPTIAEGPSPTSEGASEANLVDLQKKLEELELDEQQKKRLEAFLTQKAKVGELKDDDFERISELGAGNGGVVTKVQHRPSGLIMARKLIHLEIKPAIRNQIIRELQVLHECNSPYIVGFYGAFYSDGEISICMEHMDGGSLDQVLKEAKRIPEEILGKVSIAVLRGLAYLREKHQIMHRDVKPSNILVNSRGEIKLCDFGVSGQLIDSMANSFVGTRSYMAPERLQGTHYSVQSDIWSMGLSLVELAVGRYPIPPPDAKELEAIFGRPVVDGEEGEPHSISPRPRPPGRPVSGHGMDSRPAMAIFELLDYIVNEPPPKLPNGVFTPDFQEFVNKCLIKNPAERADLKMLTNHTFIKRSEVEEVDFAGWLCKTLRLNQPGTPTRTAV
# [6] = biological target: T3, Inhibitor of nuclear factor kappa-B kinase subunit beta (Homo sapiens) (UniProt O14920); test: Selectivity interaction (KinomeScan (DiscoverX)) EUB0000695a IKBKB; conditions: at 100 nM
# T3 sequence (whole entry): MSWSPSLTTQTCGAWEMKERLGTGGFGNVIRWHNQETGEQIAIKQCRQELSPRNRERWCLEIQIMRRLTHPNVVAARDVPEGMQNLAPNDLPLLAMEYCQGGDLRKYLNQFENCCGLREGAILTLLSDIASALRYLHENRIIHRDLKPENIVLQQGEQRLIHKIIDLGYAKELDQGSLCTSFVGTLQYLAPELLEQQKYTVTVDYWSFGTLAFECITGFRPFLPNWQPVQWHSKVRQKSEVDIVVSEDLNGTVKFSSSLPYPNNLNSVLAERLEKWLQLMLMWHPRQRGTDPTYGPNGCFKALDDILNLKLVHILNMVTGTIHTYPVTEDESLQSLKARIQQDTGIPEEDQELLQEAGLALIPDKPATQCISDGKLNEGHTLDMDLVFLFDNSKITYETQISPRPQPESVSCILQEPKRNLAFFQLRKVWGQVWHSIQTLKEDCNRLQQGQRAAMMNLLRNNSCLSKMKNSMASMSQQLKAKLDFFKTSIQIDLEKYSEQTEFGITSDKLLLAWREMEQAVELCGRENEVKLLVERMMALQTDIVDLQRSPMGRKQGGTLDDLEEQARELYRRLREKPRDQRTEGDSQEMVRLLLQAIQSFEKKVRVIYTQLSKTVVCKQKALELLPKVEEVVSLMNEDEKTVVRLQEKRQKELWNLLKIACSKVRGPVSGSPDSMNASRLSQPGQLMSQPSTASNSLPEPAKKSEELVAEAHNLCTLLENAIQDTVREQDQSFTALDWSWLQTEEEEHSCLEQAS
smiles,measurement,setting,value
CCC(=O)N1CCN(c2ccc(-n3c(=O)ccc4cnc5ccc(-c6cnc7ccccc7c6)cc5c43)cc2C(F)(F)F)CC1,% of control,[1],100%
same,% of control,[2],87%
CN(C(=O)c1cnn2cccnc12)c1cc2c(cc1N1CCOCC1)C(=O)N(C[C@@H](F)C(C)(C)O)C2,dTM,[3],0.3 K
Cc1cc([C@@H](C)Nc2ccccc2C(=O)O)c2nc(N3CCOCC3)cc(=O)n2c1 [AZD-6482],% of control,[4],87%
CC[C@@H]1[C@H](F)C(=O)N[C@@H]1COc1nccc2cc(C(N)=O)c(OC)cc12 [ZIMLOVISERTIB],% of inhibition,[5],-10.2%
Cc1cc(F)c(C(=O)Nc2cccc(-c3nncn3C(C)C)n2)cc1-n1cnc(C2CC2)c1,% of control,[6],100%
